Assays:
[1] = tested on: TMEFF1 expression in OVCAR4 cells; assay: TMEFF1 (CBX2 target gene) expression by qPCR; format: cell-based, human; details: qPCR after treatment of OVCAR4 cells
Protocol: Ten candidate inhibitors were evaluated based on their ability to inhibit HGSOC cell viability. Dose response assays of all 10 inhibitors were conducted in OVCAR4, PEO1, and COV504 HGSOC cell lines to determine half inhibitory concentration (IC50) (FIG. 12 Panel A). We explored ability of these compounds to downregulate a CBX2 target gene, transmembrane protein with EGF-like and two follistatine-like domains 1 (TMEFF1) (FIG. 12 Panel B).
RNA was isolated using RNAeasy Plus Mini Kit (Qiagen, Hilden Germany) according to the manufacturer's protocol. NanoDrop spectrophotometry was used to measure concentration of extracted RNA. Luna Universal One-step RT qPCR kit (New England BioLabs, Ipswich, MA) was used on BioRad CFX96 (Bio-Rad, Hercules, CA). HPRT or GAPDH were used as internal control as stated in figure legend.

[2] = tested on: Histone H2A Lys119 ubiquitination (H2AK119ub); assay: Western blot for H2AK119ub as marker of CBX2/PRC1 activity; format: cell-based, human
Protocol: CBX2 is a known subunit of PRC1, which is critical for normal development and functions as a transcriptional repressor. PRC1 is understood to have histone ubiquitin ligase activity, specifically targeting Histone H2A […] ubiquitination ([…]). In order to evaluate the impact of treatment with alisertib on the broader PRC1 complex, […] was used as a surrogate marker of CBX2 activity in the PRC1. OVCAR4 (***confirm) cells were treated with IC50 doses of each of the 10 candidate inhibitors, a Western blot for […] was compared to a beta-actin control (FIG. 12 Panel C). […] Finally, PRC1 target […] was used to evaluate the impact of treatment with alisertib on the broader PRC1 complex. OVCAR4 and PEO1 cells were treated with increasing doses of aliserib and western blots were performed to evaluate […] as a marker of PRC1 activity (FIG. 14 Panel F). Cell lysis was performed using radioimmunoprecipitation assay (RIPA) buffer (150 mM sodium chloride, Triton X-100, 0.5% sodium deoxycholate, 0.1% SDS [sodium dodecyl sulfate], 50 mM Tris, pH 8.0) supplemented with complete EDTA-free protease inhibitor cocktail (Roche), as well as NaF and NaV. Protein was quantified using bicinchoninic acid (BCA) protein assay (Thermo Fisher Scientific, Waltham, MA) and spectrophotometry. An 8% SDS polyacrylamide gel resolving gel was created with a 4% stacking gel. […]

OVCAR4 cells [3] = assay: Proliferation assay, parental vs CRISPR CBX2 knock out cells; format: cell-based, human; details: OVCAR4 CRISPR/Cas9 CBX2 KO vs parental
Protocol: Examples 8-12: All drugs were suspended in DMSO at the concentration of 50 mM and aliquoted and stored in -80 C. 1000 cells were seeded in 96 well plate a day prior. 10 fold dilution of drugs in the cultureing media supplemented with FBS and penicillin/Streptomycin was added and cells were cultured until the cells in the no-drug added wells became confluent (5-8 days). Cells were washed with PBS twice and fixed with fixation buffer (10% Methanol and 10% Acetic acid in PBS) followed by staining with Cristal Violet staining solution (0.4% Cristal Violet in 20% Ethanol). […] CBX2 CRISPR knocked-out OVCAR4 cells were created by the University of Colorado Functional Genomics Facility using the IDT Alt-R RNP system. ALT-R crRNA and ATL-R tracrRNA were suspended at 100 μmol/L in nuclease-free IDTE pH7.5. The same volumes of ALT-R crRNA and ATL-R tracrRNA were mixed to prepare gRNA complex at 50μmol/L, heated at 95° C. for 5 minutes, and then were cooled to room temperature. The RNP complex was prepared with 150 pmol of gRNA and 125 pmol of Alt-R Cas9-NLS in final volume of 5 μL in PBS. Cells were harvested in Necleofector solution SF with supplement (Lonza, Basel, Switzerland) at a concentration of 1×10^6 cells per 100 μL. The transfection mix was made with 100 μL of cell suspension, 2.5 μL each of RNP complex, and 0.6 μL of 100 μL of Alt-R Cas9 Electroporation enhancer. […]

OVCAR4 cells [4] = assay: Ultra low dilution analysis (ULDA) of stemness; format: cell-based, human
Protocol: An ultralow dilutional assay (ULDA) utilizing the OVCAR4 HGSOC cell line was used to evaluate the functional impact of four inhibitors. The number of spheroids were plotted against the IC50 dose of each agent (FIG. 13 Panel B). The more significant the decrease in spheroids formation capacity, the more significant the decrease in stemness associated with treatment. […] Cells were trypsinized and filtered with a 40-micron filter, creating a single cell suspension. Cells were plated in 96 wells ultra-low attachment plates (CORNING #3474 this is flat bottom, and CORNING #7007: used u bottom for COV504) in 200 ul CSC media (DMEM/F12, 1× B27, 4% FBS, 100 U/ml penicillin/streptomycin, 20 ng/ml human EGF, 20 ng/ml human FGF). After 3 days, 100 μl of medium was gently taken out, then added drugs to final IC50 concentration. The media with drug was replaced with half volume every 4-5 days and cultured for 3 weeks. […] After 4 hours spheroid existence and color were evaluated under the microscope (Incucyte). Observation of purple spheroids confirmed the presence of live cells and were scored as 1. If no spheroids appreciated, or if purple spheroids were not observed it was scored as 0. […] The stem cell frequency was calculated using ultra low limiting dilution analysis (PMID: 19567251).

[5] = tested on: ID8 Trp53-/- Brca2-/- cells; assay: Syngeneic mouse model, CBX2 intact vs CBX2 knock down tumors; format: in vivo, C57BL/6J mice; details: 30 mg/kg PO, 28 days
Protocol: To further elucidate the dependence of alisertib on CBX2, an in vivo study was performed using a syngeneic mouse model with CBX2 intact compared to CBX2 knock down, undergoing treatment with alisertib. Measurements of mRNA expression confirmed that CBX2 knock down was effective (FIG. 15 Panel A). The mice were treated with vehicle control or 30 mg/kg alisertib for 28 days (FIG. 15 Panel B). Tumor-bearing mice were necropsied at the end of treatment and omental weight, number of dissemination sites, and total tumor weight were quantified (FIG. 15 Panels C-E, respectively). […] It can be concluded therefore, that the loss of CBX2 expression in an ovarian cancer model attenuates the anti-tumor response to alisertib. […] Tissue was also collected and processed for further analysis. […] In the second study, mice were treated with 30 mg/kg alisertib, PO, for 28 days, as described above. Due to the weight loss observed in the first study, we reduced treatment from 7 days per week to 5 days per week.

COc1cc(Nc2ncc3c(n2)-c2ccc(Cl)cc2C(c2c(F)cccc2OC)=NC3)ccc1C(=O)O [alisertib]
TMEFF1 expression [1]: significantly inhibited
H2AK119ub, surrogate marker of PRC1 activity ([2]; OVCAR4 and PEO1 cells, increasing doses): decreased in parallel with CBX2
Histone H2A Lys119 ubiquitination ([2]; OVCAR4 cells, IC50 dose, vs beta-actin control): decreased
IC50 in CBX2 KO cells compared to the parental cells (OVCAR4 cells [3]): ten times higher
impact on stemness through ULDA on knocking out CBX2 (OVCAR4 cells [4]; OVCAR4 CBX2 KO vs parental): attenuated impact
stem cell frequency (OVCAR4 cells [4]; treatment at IC50): decreased
number of dissemination sites: anti-tumor response in CBX2 knock down mice vs CBX2 intact mice [5]: significant attenuation
omental weight: anti-tumor response in CBX2 knock down mice vs CBX2 intact mice [5]: significant attenuation
total tumor weight: anti-tumor response in CBX2 knock down mice vs CBX2 intact mice [5]: significant attenuation

Source: patent US20250199004A1, “METHODS OF EVALUATING TREATMENT OUTCOME IN HIGH GRADE SEROUS OVARIAN CANCER” (THE REGENTS OF THE UNIVERSITY OF COLORADO, A BODY CORPORATE, priority 2018, published 2025)
